In this assay the test system is HCV 1b-377-neo replicon cells. Kind of assay: HCV replicon FRET assay. It is filed as cell-based. The following applies: Hepatitis C virus; HCV replicon; read-out: Activity (EC50). The source says:
The HCV replicon cell line was isolated from colonies as described by Lohman, et. al. (Science 1999, 285, 110-113, expressly incorporated by reference in its entirety) and used for all experiments. The HCV replicon has the nucleic acid sequence set forth in EMBL Accession No.: AJ242652, the coding sequence of which is from nt 1801 to 7758.
The coding sequence of the published HCV replicon was synthesized by Operon Technologies, Inc. (Alameda, Calif.), and the fall-length replicon was then assembled in plasmid pGem9zf(+) (Promega, Madison, Wis.) using standard molecular biology techniques. The replicon consists of (i) the HCV 5′ UTR fused to the first 12 amino acids of the capsid protein, (ii) the neomycin phosphotransferase gene (neo), (iii) the IRES from encephalomyocarditis virus (EMCV), and (iv) HCV NS3 to NS5B genes and the HCV 3′ UTR. Plasmid DNAs were linearized with ScaI and RNA transcripts were synthesized in vitro using the T7 MegaScript transcription kit (Ambion, Austin, Tex.) according to manufacturer's directions.
To generate cell lines, 4×10^6 Huh-7 cells (kindly provided by R. Bartenschlager and available from Health Science Research Resources Bank, Japan Health Sciences Foundation) were electroporated (GenePulser System, Bio-Rad) with 10 micrograms(“μg”) of RNA transcript and plated into 100-mm dishes. After 24 hours, selective media containing 1.0 milligrams/milliliter (“mg/mL”) G418 was added and media was changed every 3 to 5 days. […] These cell lines were maintained at 37° C., 5% CO2, 100% relative humidity in DMEM (Cat#11965-084) Gibco-BRL, Rockville, Md., with 10% heat inactivated calf serum (Sigma), 10 mL of 100× penicillin/streptomycin (Cat#15140-122) Gibco-BRL, Rockville, Md., Geneticin (Cat#10131-027) Gibco-BRL, Rockville, Md. at 1 mg/mL. One of the cell lines (deposited as ATCC Accession No. PTA-4583 in the American Type Culture Collection) which had approximately 3,000 copies of HCV replicon RNA/cell was used for development of the assay (HCV 1b-377-neo replicon cells).
To perform the HCV FRET screening assay, 96-well cell culture plates were used. The FRET peptide (Anaspec, Inc., San Jose, Calif.) (Taliani et al., Anal. Biochem. 1996, 240, 60-67, hereby incorporated by reference in its entirety) contains a fluorescence donor, EDANS, near one end of the peptide and an acceptor, DABCYL, near the other end. The fluorescence of the peptide is quenched by […] resonance energy transfer (RET) between the donor and the acceptor, but as the NS3 protease cleaves the peptide the products are released from RET quenching and the fluorescence of the donor becomes apparent.
The assay reagent was made as follows: 5X luciferase cell culture lysis (Cat#E153A, Promega, Madison, Wis.) diluted to 1X with dH2O, NaCl added to […] final, the FRET peptide diluted to 20 micromolar (“μM”) final from a 2 mM stock. HCV 1b-377-neo replicon cells were trypsinized, placed into each well of a 96-well plate and allowed to attach overnight. The next day, the test compounds were added to columns 1 through 10; column 11 was media plus DMSO only, and column 12 contained a titration of interferon or an HCV specific inhibitor as a control (1000 units for A12, B12, 100 units for C12, D12, 10 units for E12, F12 and 1 unit for G12, H12). […] In addition, naïve Huh-7 cells could also be used to replace wells A12 and B12 as a background control.
At subsequent various times (typically 72 hours), 10% final volume Alamar blue (Cat#00-100, Trek Diagnostics, Cleveland, Ohio) was added to each well. The plates were returned to the incubator for 5 hours and then read in the Cytoflour (PE Biosystems) to determine Alamar blue conversion in each well as a measure of cellular toxicity.
A general note: Replicon systems follow genome replication, usually without infectious particles.

Results on 37 compounds are retold here after patent US8143288B2, “Inhibitors of HCV replication” (priority 2005, dated 2012).

Each structure is given as a SMILES string.

As usually defined, the EC50 is the concentration at which the effect is half-maximal. `COc1ccc(OC)c(C(=O)N2CCC[C@H]2C(=O)Nc2ccc(/C=C/c3ccc(NC(=O)[C@@H]4CCCN4C(=O)c4cc(OC)ccc4OC)cc3)cc2)c1` [Example 145]: the EC50 is 100 to 1000 nM. In the case of `N#CC1(C(=O)N2CCC[C@H]2C(=O)Nc2ccc(/C=C/c3ccc(NC(=O)[C@@H]4CCCN4C(=O)C4(C#N)CC4)cc3)cc2)CC1` [Example 66] it was 0.1 to 90 nM; in that of `O=C(Nc1ccc(/C=C/c2ccc(NC(=O)[C@@H]3CCCN3C(=O)CC3CC3)cc2)cc1)[C@@H]1CCCN1C(=O)CC1CC1` [Example 26], 0.1 to 90 nM; in that of `CC(C)C(=O)N1CC=C[C@H]1C(=O)Nc1ccc(/C=C/c2ccc(NC(=O)[C@@H]3C=CCN3C(=O)C(C)C)cc2)cc1` [Example 73], 100 to 1000 nM. For `CCc1ccccc1C(=O)Nc1ccc(/C=C/c2ccc(NC(=O)[C@@H]3CCCN3C(=O)Cc3ccccc3)cc2)cc1` [Example 265] the value was 100 to 1000 nM; for `O=C(Nc1ccc(/C=C/c2ccc(NC(=O)[C@@H]3CCCN3C(=O)c3ccccc3CCc3ccccc3)cc2)cc1)[C@@H]1CCCN1C(=O)c1ccccc1CCc1ccccc1` [Example 169], 100 to 1000 nM; for `O=C(Nc1ccc(/C=C/c2ccc(NC(=O)[C@@H]3C=CCN3C(=O)Cc3ccncc3)cc2)cc1)[C@@H]1C=CCN1C(=O)Cc1ccncc1` [Example 221], 100 to 1000 nM. In the case of `Cc1ccccc1C(=O)N1CCC[C@H]1C(=O)Nc1ccc(/C=C/c2ccc(NC(=O)[C@@H]3CCCN3C(=O)c3ccccc3C)cc2)cc1` [Example 125] it was 100 to 1000 nM; in that of `O=C(NCc1ccccc1)Nc1ccc(/C=C/c2ccc(NC(=O)[C@@H]3CCCN3C(=O)Cc3ccccc3)cc2)cc1` [Example 250C], 1000 to 10000 nM. Take `CCOc1cccc(-c2cccnc2C(=O)N2CCC[C@H]2C(=O)Nc2ccc(/C=C/c3ccc(NC(=O)[C@@H]4CCCN4C(=O)c4ncccc4-c4cccc(OCC)c4)cc3)cc2)c1` [Example 231]: the half-maximal effective concentration (EC50) fell in the range of 1000 to 10000 nM.

`Cc1cc(CC(=O)N2CCC[C@H]2C(=O)Nc2ccc(/C=C/c3ccc(NC(=O)[C@@H]4CCCN4C(=O)C(C)C)cc3)cc2)on1` [Example 98]: the EC50 lay in the range of 0.1 to 90 nM.

As for `O=C(CC1CC1)Nc1ccc(/C=C/c2ccc(NC(=O)[C@@H]3CCCN3C(=O)[C@H]3CCCO3)cc2)cc1` [Example 261], the EC50 was 1000 to 10000 nM. As for `Cc1cccc(-n2cnc(C(=O)N3CCC[C@H]3C(=O)Nc3ccc(/C=C/c4ccc(NC(=O)[C@@H]5CCCN5C(=O)c5cn(-c6cccc(C)n6)cn5)cc4)cc3)c2)n1` [Example 213], the half-maximal effective concentration (EC50) fell in the range of 1000 to 10000 nM.

Turning to `Cn1cc(C(=O)N2CCC[C@H]2C(=O)Nc2ccc(/C=C/c3ccc(NC(=O)[C@@H]4CCCN4C(=O)c4cn(C)c5ccccc45)cc3)cc2)c2ccccc21` [Example 207], the half-maximal effective concentration (EC50) fell in the range of 100 to 1000 nM. For `O=C(Nc1ccc(/C=C/c2ccc(NC(=O)[C@@H]3CCCN3C(=O)[C@H](O)c3ccccc3)cc2)cc1)[C@@H]1CCCN1C(=O)[C@H](O)c1ccccc1` [Example 298] the value was 0.1 to 90 nM; for `CCOc1ncccc1C(=O)N1CCC[C@H]1C(=O)Nc1ccc(/C=C/c2ccc(NC(=O)[C@@H]3CCCN3C(=O)c3cccnc3OCC)cc2)cc1` [Example 160], 1000 to 10000 nM. Turning to `CCO[C@@H]1C[C@@H](C(=O)Nc2ccc(/C=C/c3ccc(NC(=O)[C@@H]4C[C@H](OCC)CN4C(=O)OCc4ccccc4)cc3)cc2)N(C(=O)OCc2ccccc2)C1` [Example 16], the EC50 was in the range of 1000 to 10000 nM. In the case of `CCC(=O)N1CC=C[C@H]1C(=O)Nc1ccc(/C=C/c2ccc(NC(=O)[C@@H]3C=CCN3C(=O)CC)cc2)cc1` [Example 71] it was 100 to 1000 nM; in that of `CSCC(=O)N1CCC[C@H]1C(=O)Nc1ccc(/C=C/c2ccc(NC(=O)[C@@H]3CCCN3C(=O)Cc3cc(C)no3)cc2)cc1` [Example 94], 0.1 to 90 nM. In the case of `CC(C)N(C(=O)N1CCC[C@H]1C(=O)Nc1ccc(/C=C/c2ccc(NC(=O)[C@@H]3CCCN3C(=O)N(C(C)C)C(C)C)cc2)cc1)C(C)C` [Example 290], the 50% effective concentration (EC50) is 0.1 to 90 nM. For `COc1ccc2[nH]cc(CC(=O)N3CCC[C@H]3C(=O)Nc3ccc(/C=C/c4ccc(NC(=O)[C@@H]5CCCN5C(=O)Cc5c[nH]c6ccc(OC)cc56)cc4)cc3)c2c1` [Example 35] the value was 0.1 to 90 nM; for `Cc1nnsc1C(=O)N1CCC[C@H]1C(=O)Nc1ccc(/C=C/c2ccc(NC(=O)[C@@H]3CCCN3C(=O)c3snnc3C)cc2)cc1` [Example 199], 0.1 to 90 nM.

In the case of `O=C(Nc1ccc(/C=C/c2ccc(NC(=O)[C@@H]3CCCN3C(=O)[C@@H]3CCCN3Cc3ccccc3)cc2)cc1)[C@@H]1CCCN1C(=O)[C@@H]1CCCN1Cc1ccccc1` [Example 164], the EC50 was 1000 to 10000 nM. Consider `O=C(Nc1ccc(/C=C/c2ccc(NC(=O)[C@@H]3CCCN3C(=O)c3ccc(C(F)(F)F)nc3Cl)cc2)cc1)[C@@H]1CCCN1C(=O)c1ccc(C(F)(F)F)nc1Cl` [Example 195], for which the EC50 was 1000 to 10000 nM. For `COc1cccc(CCC(=O)N2CCC[C@H]2C(=O)Nc2ccc(/C=C/c3ccc(NC(=O)[C@@H]4CCCN4C(=O)CCc4cccc(OC)c4)cc3)cc2)c1` [Example 33] the value was 100 to 1000 nM. In the case of `CCOC(=O)N1CCC[C@H]1C(=O)Nc1ccc(/C=C/c2ccc(NC(=O)[C@@H]3CCCN3C(=O)OCC)cc2)cc1` [Example 57], the EC50 lay in the range of 100 to 1000 nM.

On to `COc1cccc(C(=O)N2CCC[C@H]2C(=O)Nc2ccc(/C=C/c3ccc(NC(=O)[C@@H]4CCCN4C(=O)c4cccc(OC)c4)cc3)cc2)c1` [Example 32], for which the EC50 is 0.1 to 90 nM. In the case of `O=C(Nc1ccc(/C=C/c2ccc(NC(=O)[C@@H]3CCCN3C(=O)C3CC(=O)N(CCc4cccs4)C3)cc2)cc1)[C@@H]1CCCN1C(=O)C1CC(=O)N(CCc2cccs2)C1` (stereo partly shown) [Example 156] it was 1000 to 10000 nM. For the compound `O=C1N[C@H]2[C@H](CS[C@H]2CCCCC(=O)N2CCC[C@H]2C(=O)Nc2ccc(/C=C/c3ccc(NC(=O)[C@@H]4CCCN4C(=O)Cc4ccccc4)cc3)cc2)N1` [Example 109], the 50% effective concentration (EC50) is 0.1 to 90 nM. In the case of `O=C(Nc1ccc(/C=C/c2ccc(NC(=O)[C@@H]3CCCN3C(=O)c3c[nH]cn3)cc2)cc1)[C@@H]1CCCN1C(=O)c1c[nH]cn1` [Example 210] it was 1000 to 10000 nM; in that of `NC(=O)C1(C(=O)N2CCC[C@H]2C(=O)Nc2ccc(/C=C/c3ccc(NC(=O)[C@@H]4CCCN4C(=O)C4(C(N)=O)CC4)cc3)cc2)CC1` [Example 62], 100 to 1000 nM; in that of `O=C(Nc1ccc(/C=C/c2ccc(NC(=O)[C@@H]3CCCN3C(=O)C3CCC3)cc2)cc1)[C@@H]1CCCN1C(=O)c1cccnc1` [Example 88], 0.1 to 90 nM.

As to `C[C@@](O)(C(=O)N1CCC[C@H]1C(=O)Nc1ccc(/C=C/c2ccc(NC(=O)[C@@H]3CCCN3C(=O)[C@@](C)(O)c3ccccc3)cc2)cc1)c1ccccc1` [Example 299], the half-maximal effective concentration (EC50) lay within 0.1 to 90 nM. In the case of `CCC(=O)c1ccccc1C(=O)N1CCC[C@H]1C(=O)Nc1ccc(/C=C/c2ccc(NC(=O)[C@@H]3CCCN3C(=O)c3ccccc3C(=O)CC)cc2)cc1` [Example 136] it was 1000 to 10000 nM; in that of `O=C(Nc1ccc(/C=C/c2ccc(NC(=O)[C@@H]3CCCN3C(=O)C3Cc4ccccc43)cc2)cc1)[C@@H]1CCCN1C(=O)C1Cc2ccccc21` (stereo partly shown) [Example 116], 1000 to 10000 nM. In the case of `CCOc1ccccc1CC(=O)N1CCC[C@H]1C(=O)Nc1ccc(/C=C/c2ccc(NC(=O)[C@@H]3CCCN3C(=O)Cc3ccccc3OCC)cc2)cc1` [Example 173] it was 1000 to 10000 nM. Consider `CC(C)(C)O[C@@H]1C[C@@H](C(=O)Nc2ccc(/C=C/c3ccc(NC(=O)[C@@H]4C[C@@H](OC(C)(C)C)CN4C(=O)Cc4cccnc4)cc3)cc2)N(C(=O)Cc2cccnc2)C1` [Example 131], for which the EC50 was 0.1 to 90 nM.
